Measurements from ChEMBL document CHEMBL1201862, “PubChem BioAssay data set” (2004).
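Step 1: Grow cells in 96-well plates. Step 2: Expose to compound for 48 hours at 5 concentrations. Step 3: Interpolate endpoints linearly; if unreached, use highest concentration. GI50 = concentration required for 50% inhibition of growth.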 The source made the active and inactive calls. No stated cut-off is given here; in the data, active = GI50 up to about 1.1 µM and inactive = higher.

Experiments:
Experiment in all cases: NCI-60 cell line screen, 48 h
T47D = test system: T47D
PC-3 = test system: PC-3
HOP-92 = test system: HOP-92
SK-MEL-5 = test system: SK-MEL-5
786-0 = test system: 786-0
TK-10 = test system: TK-10
RPMI-8226 = test system: RPMI-8226
NCI/ADR-RES = test system: NCI/ADR-RES
MDA-MB-435 = test system: MDA-MB-435
COLO 205 = test system: COLO 205
NCI-H23 = test system: NCI-H23
BT-549 = test system: BT-549
MCF7 = test system: MCF7
HOP-62 = test system: HOP-62
EKVX = test system: EKVX
ACHN = test system: ACHN
HT-29 = test system: HT-29
A549 = test system: A549
UACC-257 = test system: UACC-257
DU-145 = test system: DU-145
HCT-116 = test system: HCT-116
OVCAR-5 = test system: OVCAR-5
UO-31 = test system: UO-31
SK-OV-3 = test system: SK-OV-3
RXF 393 = test system: RXF 393
SF-295 = test system: SF-295
OVCAR-4 = test system: OVCAR-4
SW-620 = test system: SW-620
HL-60 = test system: HL-60
U-251 = test system: U-251
KM12 = test system: KM12
CCRF-CEM = test system: CCRF-CEM
NCI-H522 = test system: NCI-H522
CAKI-1 = test system: CAKI-1
MDA-MB-231 = test system: MDA-MB-231
NCI-H460 = test system: NCI-H460
SF-268 = test system: SF-268
A498 = test system: A498
SF-539 = test system: SF-539
OVCAR-8 = test system: OVCAR-8
M14 = test system: M14
K562 = test system: K562
SNB-19 = test system: SNB-19
SK-MEL-2 = test system: SK-MEL-2
IGROV-1 = test system: IGROV-1
SK-MEL-28 = test system: SK-MEL-28
Hs-578T = test system: Hs-578T

Measured: GI50

COc1cc2c(cc1O)CCN[C@@]21CS[C@H]2c3c(OC(C)=O)c(C)c4c(c3C(COC1=O)N1C2C2NC(Cc3cc(C)c(OC)c(O)c32)[C@@H]1O)OCO4 (some centres not stated)
active: T47D < 10 nM | PC-3 < 10 nM | HOP-92 < 10 nM | SK-MEL-5 < 10 nM | 786-0 < 10 nM | TK-10 < 10 nM | RPMI-8226 < 10 nM | NCI/ADR-RES < 10 nM | MDA-MB-435 < 10 nM | COLO 205 < 10 nM | NCI-H23 < 10 nM | BT-549 < 10 nM | MCF7 < 10 nM | HOP-62 < 10 nM | EKVX < 10 nM | ACHN < 10 nM | HT-29 < 10 nM | A549 < 10 nM | UACC-257 < 10 nM | DU-145 < 10 nM | HCT-116 < 10 nM | OVCAR-5 < 10 nM | UO-31 < 10 nM | SK-OV-3 < 10 nM | RXF 393 < 10 nM | SF-295 < 10 nM | OVCAR-4 < 10 nM | SW-620 < 10 nM | HL-60 < 10 nM | U-251 < 10 nM | KM12 < 10 nM | CCRF-CEM < 10 nM | NCI-H522 < 10 nM | CAKI-1 < 10 nM | MDA-MB-231 < 10 nM | NCI-H460 < 10 nM | SF-268 < 10 nM | A498 < 10 nM | SF-539 < 10 nM | OVCAR-8 < 10 nM | M14 < 10 nM | K562 < 10 nM | SNB-19 < 10 nM | SK-MEL-2 < 10 nM | IGROV-1 < 10 nM | SK-MEL-28 < 10 nM | Hs-578T < 10 nM
